Reference: the supplement of paper PMC12669032

Legend:
Assay in all cases: growth AUC relative to DMSO control (fraction); higher = more growth (less inhibition)
Conditions in all cases: 24 h
Streptococcus salivarius = test system: Streptococcus salivarius
Description: (§1)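 Validation screen: 11 independently purchased pesticides tested on 8 gut bacterial strains at 2.5–320 µM in mGAM, anaerobic, 37 °C, 24 h. Growth AUC normalised to DMSO controls, mean of 3 independent experiments.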

[1] = test system: Parabacteroides distasonis
Description: as §1

Eubacterium rectale = test system: Eubacterium rectale
Description: as §1

Escherichia coli IAI1 = test system: Escherichia coli IAI1
Description: as §1

Roseburia intestinalis = test system: Roseburia intestinalis
Description: as §1

Clostridium difficile = test system: Clostridium difficile
Description: as §1

Lactobacillus gasseri = test system: Lactobacillus gasseri
Description: as §1

Bacteroides uniformis = test system: Bacteroides uniformis
Description: as §1

CCC(C)[C@H]1O[C@]2(C=C[C@@H]1C)C[C@@H]1C[C@@H](C/C=C(\C)[C@@H](O[C@H]3C[C@H](OC)[C@@H](O[C@H]4C[C@H](OC)[C@@H](O)[C@H](C)O4)[C@H](C)O3)[C@@H](C)/C=C/C=C3\CO[C@@H]4[C@H](O)C(C)=C[C@@H](C(=O)O1)[C@]34O)O2.CO[C@H]1C[C@H](O[C@H]2[C@H](C)O[C@@H](O[C@@H]3/C(C)=C/C[C@@H]4C[C@@H](C[C@]5(C=C[C@H](C)[C@@H](C(C)C)O5)O4)OC(=O)[C@@H]4C=C(C)[C@@H](O)[C@H]5OC/C(=C\C=C\[C@@H]3C)[C@]54O)C[C@@H]2OC)O[C@@H](C)[C@@H]1O (stereo not given in full) [ABAMECTIN]
growth AUC
Conditions	Bacteroides uniformis	Clostridium difficile	Escherichia coli IAI1	Eubacterium rectale	Lactobacillus gasseri	Roseburia intestinalis	Streptococcus salivarius	[1]
2.5 µM	0.975	1.02	1.01	1.29	1.04	0.865	1.04	0.985
5 µM	0.996	0.979	0.978	1.17	1.07	0.871	0.973	0.918
10 µM	0.968	0.968	1.01	1.05	1.03	0.564	0.983	0.409
20 µM	0.996	0.986	0.957	0.881	0.983	0.21	0.876	0.057
40 µM	0.974	0.966	1.01	0.774	0.952	0.121	0.894	0.0234
80 µM	0.971	0.887	1	0.892	1.02	0.102	0.887	0.0192
160 µM	0.99	0.885	0.974	0.999	0.889	0.107	1.01	0.0484

Cc1cc(C(C#N)c2ccc(Cl)cc2)c(Cl)cc1NC(=O)c1cc(I)cc(I)c1O (stereo not given) [CLOSANTEL]
growth AUC
Conditions	Bacteroides uniformis	Clostridium difficile	Escherichia coli IAI1	Eubacterium rectale	Lactobacillus gasseri	Roseburia intestinalis	Streptococcus salivarius	[1]
2.5 µM	1	0.0348	1.07	0.453	0.809	0.246	1.05	0.245
5 µM	0.973	0.0106	1.04	0.242	0.827	0.149	1.04	0.00935
10 µM	0.616	0.0157	1.03	0.0185	0.866	0.0586	1.09	0.00581
20 µM	0.609	0.0183	0.929	0.0129	0.848	0.0162	1.06	0.00682
40 µM	0.573	0.00635	0.904	0.00913	0.815	0.0268	1.04	0.0119
80 µM	0.575	0.0171	0.886	0.0119	0.836	0.0158	1.13	0.0133
160 µM	0.575	0.072	0.861	0.0223	0.81	0.0258	1.06	0.0101

CCCCOC(=O)[C@@H](C)Oc1ccc(Oc2ccc(C#N)cc2F)cc1 [CYHALOFOP-BUTYL]
growth AUC
Conditions	Bacteroides uniformis	Clostridium difficile	Escherichia coli IAI1	Eubacterium rectale	Lactobacillus gasseri	Roseburia intestinalis	Streptococcus salivarius	[1]
2.5 µM	1.01	1.02	1.01	1.11	1.05	1.01	1.07	1.04
5 µM	0.969	0.984	0.98	1.04	0.986	0.964	1.02	0.93
10 µM	0.994	0.98	0.975	1.05	0.986	1.02	0.957	0.859
20 µM	0.937	1.03	0.972	0.967	0.981	0.891	0.972	0.717
40 µM	0.971	1.02	0.996	1.02	0.956	0.981	0.981	0.643
80 µM	0.99	0.992	0.979	1.13	1.01	0.976	0.999	0.684
160 µM	0.968	1.01	0.992	1.18	0.969	0.998	1.01	0.588
320 µM	0.925	0.977	1	1.28	0.975	0.918	1.1	0.437

O=[N+]([O-])c1cc(C(F)(F)F)c(Cl)c([N+](=O)[O-])c1Nc1ncc(C(F)(F)F)cc1Cl [FLUAZINAM]
growth AUC
Conditions	Bacteroides uniformis	Clostridium difficile	Escherichia coli IAI1	Eubacterium rectale	Lactobacillus gasseri	Roseburia intestinalis	Streptococcus salivarius	[1]
2.5 µM	1.04	0.99	1.03	1.04	1.01	1.01	1.04	0.966
5 µM	1.02	0.995	1.01	0.887	0.968	1.08	1	0.859
10 µM	0.996	0.969	1.03	0.692	0.921	0.959	0.984	0.411
20 µM	0.807	0.909	0.912	0.227	0.844	0.879	0.815	0.0128
40 µM	0.593	0.0127	0.934	0.0306	0.847	0.584	0.992	0.0301

CCCC1COC(Cn2cncn2)(c2ccc(Cl)cc2Cl)O1 (stereo not given) [PROPICONAZOLE]
growth AUC
Conditions	Bacteroides uniformis	Clostridium difficile	Escherichia coli IAI1	Eubacterium rectale	Lactobacillus gasseri	Roseburia intestinalis	Streptococcus salivarius	[1]
2.5 µM	1.03	0.982	1	1.19	1.03	0.971	1.1	1.12
5 µM	0.99	1.01	0.993	0.951	0.968	0.925	1.04	1
10 µM	1.02	0.967	0.971	0.703	1.02	1.01	1.06	0.988
20 µM	0.97	1.03	0.981	0.475	0.96	0.894	0.994	0.874
40 µM	0.951	0.981	0.999	0.344	0.972	0.947	1.04	0.488
80 µM	0.915	0.979	0.975	0.0163	0.94	0.716	1.06	0.284
160 µM	0.831	0.885	0.996	0.0214	0.851	0.202	1.03	0.0246
320 µM	0.618	0.385	0.994	0.0204	0.832	0.0162	0.932	0.0187
